Data published in paper PMC10790790, “Viscosity-dependent determinants of Campylobacter jejuni impacting the velocity of flagellar motility” (mBio, 2023).

Columns and labels:
[1] = target: T1, CbrR (Campylobacter jejuni, UniProt Q0PAM5); assay: DRaCALA on nitrocellulose; assay type: binding; conditions: 10 mM Tris-HCl pH 8, 100 mM NaCl, 5 mM MgCl2
T1 construct: codon 2 to penultimate codon, C-terminal Myc-6xHis tag kept, pBAD/myc-HisA (pDAR6203), E. coli Top10

[2] = target: T2, WspR (Pseudomonas aeruginosa, UniProt Q9HXT9); assay: DRaCALA on nitrocellulose; also TLC of c-di-GMP synthesis; assay type: biochemical; conditions: labelled compound ([alpha-32P]GTP); 10 mM Tris-HCl pH 8, 100 mM NaCl, 5 mM MgCl2 (DRaCALA); 10 mM MgCl2, room temperature (TLC)
T2 construct: codon 2 to penultimate codon, from pVL791, C-terminal Myc-6xHis tag kept, pBAD/myc-HisA (pDAR6535), E. coli Top10
T2 sequence (Q9HXT9 entry or part of it): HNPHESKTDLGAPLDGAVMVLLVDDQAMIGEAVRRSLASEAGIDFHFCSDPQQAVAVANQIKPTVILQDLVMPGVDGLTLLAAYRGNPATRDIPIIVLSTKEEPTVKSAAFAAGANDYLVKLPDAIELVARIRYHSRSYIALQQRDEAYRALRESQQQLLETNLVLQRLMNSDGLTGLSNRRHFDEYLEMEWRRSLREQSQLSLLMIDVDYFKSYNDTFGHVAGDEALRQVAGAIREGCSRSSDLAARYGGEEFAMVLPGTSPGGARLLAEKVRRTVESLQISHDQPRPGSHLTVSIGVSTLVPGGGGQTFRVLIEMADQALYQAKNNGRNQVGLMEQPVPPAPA

[3] = target: T2, WspR; assay: DRaCALA on nitrocellulose; assay type: biochemical; conditions: labelled compound ([32P]c-di-GMP made by WspR); 10 mM Tris-HCl pH 8, 100 mM NaCl, 5 mM MgCl2

T1 sequence (Q0PAM5 entry or part of it): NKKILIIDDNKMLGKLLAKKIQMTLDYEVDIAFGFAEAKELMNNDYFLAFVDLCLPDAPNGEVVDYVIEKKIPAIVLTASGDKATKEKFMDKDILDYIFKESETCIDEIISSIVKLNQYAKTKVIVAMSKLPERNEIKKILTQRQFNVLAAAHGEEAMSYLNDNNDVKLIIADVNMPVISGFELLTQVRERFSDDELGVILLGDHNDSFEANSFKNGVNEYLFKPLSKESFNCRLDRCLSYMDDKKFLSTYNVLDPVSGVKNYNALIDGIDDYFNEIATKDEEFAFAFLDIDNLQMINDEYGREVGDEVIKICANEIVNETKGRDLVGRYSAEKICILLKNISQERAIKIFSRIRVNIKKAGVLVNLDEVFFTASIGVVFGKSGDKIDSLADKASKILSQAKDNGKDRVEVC

Nc1nc2c(ncn2[C@@H]2O[C@H](COP(=O)(O)OP(=O)(O)OP(=O)(O)O)[C@@H](O)[C@H]2O)c(=O)[nH]1 [GTP]
DRaCALA on nitrocellulose ([1]; labelled compound ([alpha-32P]GTP)): recombinant WspR and CbrR bound both GTP and c-di-GMP, but VidA and VidB did not | DRaCALA on nitrocellulose; also TLC of c-di-GMP synthesis [2]: recombinant WspR and CbrR bound both GTP and c-di-GMP, but VidA and VidB did not

Nc1nc2c(ncn2[C@@H]2O[C@@H]3COP(=O)(O)O[C@H]4[C@@H](O)[C@H](n5cnc6c(=O)[nH]c(N)nc65)O[C@@H]4COP(=O)(O)O[C@H]3[C@H]2O)c(=O)[nH]1 [c-di-GMP]
DRaCALA on nitrocellulose ([1]; labelled compound ([32P]c-di-GMP made by WspR)): recombinant WspR and CbrR bound both GTP and c-di-GMP, but VidA and VidB did not | DRaCALA on nitrocellulose [3]: recombinant WspR and CbrR bound both GTP and c-di-GMP, but VidA and VidB did not
